How the values were obtained:
[1] = Bodyweight change in mouse with induced depression and anxiety disorder; type: in vivo; conditions: 150 mg/kg doxepin, Day 7 or Day 14, vs control group
Experimental: (§1) Fraxinus rhynchophylla extract was dissolved in physiological saline to have a concentration of 100 mg/kg for each, and then aliquoted. One hour before applying the stress for 14 days, the sample was administered via an oral route.
(§2) A 7-week old male C57BL/6 mouse was acclimated for 1 week, and then exposed to a stress everyday between 10:00 to 14:00 o'clock. Specifically, 1 hour after the oral administration of a sample, an electric shock with strength of 0.5 mA was applied to the foot sole of the mouse for 1 sec with an interval of 10 seconds, for 2 minutes in total, by using a shuttle box (JD-SI-10, JEUNG DO BIO & PLANT CO, LTD, Seoul, S. Korea). […]
A change in body weight caused by administration of the ethanol extract of Fraxinus rhynchophylla of the present invention was determined in the animal model with induced depression and anxiety disorder. Specifically, the bodyweight of a mouse was measured, before the exposure to stress (Day 0), or on Day 7 or Day 14 after the exposure to stress for the normal group, the control group (i.e., group induced with depression and anxiety disorder), the test group (i.e., group administered with the ethanol extract of Fraxinus rhynchophylla of the present invention), and the positive control group (i.e., group administered with doxepin) (FIG. 6). […]

[2] = test system: C57BL/6 mouse with induced depression and anxiety disorder; assay: Open field test (OFT); type: in vivo; conditions: 150 mg/kg doxepin for 14 days, test on Day 15, vs control group
Experimental: as §1, §2
Open field test is to determine the degree of anxiety, which is one symptom of depression, by measuring the voluntary movement of a mouse after entering an unfamiliar field for the first time. At the center (15 cm×15 cm) of an open box with a dimension of 30 cm×30 cm×30 cm, which is made of white acryl, a C57BL/6 mouse which has been induced to have depression and anxiety disorder was placed, and then total travel distance and frequency of center entry for 10 minutes were measured. For the measurement, after recording using a video camera, the overall movement of the C57BL/6 mouse was analyzed by using Video tracking software (SMART 3.0, Panlab, Spain). […]

[3] = test system: C57BL/6 mouse with induced depression and anxiety disorder; assay: Forced swim test (FST); type: in vivo; conditions: 150 mg/kg doxepin for 14 days, test on Day 15, vs control group
Experimental: as §1
as §2, with “Korea). After applying the electric shock, the mouse was put to a hemicylindrical restraining device (JD-R 05A, JEUNG DO BIO & PLANT CO, LTD, Seoul, S. Korea) made of 30 mm-thick acryl, one animal in each device, and then restrained in the immobile state for 2 hours.” for “Korea).”
Forced swim test is a test to determine despair among the symptoms of depression, and the immobility of a mouse was checked using a cylinder having a depth which prevents the animal from touching its paws or tail to the floor of the cylinder. […] Then, the immobility time during 4 minutes, i.e., excluding initial 2 minutes as adaptation period from the total 6 minutes, was measured.

cortisol = assay: Cortisol level in blood serum (ELISA); type: in vivo, mouse; conditions: 150 mg/kg doxepin for 14 days, blood on Day 17, vs control group
Experimental: as §1
(§3) A 7-week old male C57BL/6 mouse was acclimated for 1 week, and then exposed to a stress everyday between 10:00 to 14:00 o'clock. Specifically, 1 hour after the oral administration of a sample, an electric shock with strength of 0.5 mA was applied to the foot sole of the mouse for 1 sec with an interval of 10 seconds, for 2 minutes in total, by using a shuttle box (JD-SI-10, JEUNG DO BIO & PLANT CO, LTD, Seoul, S. Korea). After applying the electric shock, the mouse was put to a hemicylindrical restraining device (JD-R 05A, JEUNG DO BIO & PLANT CO, LTD, Seoul, S. Korea) made of 30 mm-thick acryl, one animal in each device, and then restrained in the immobile state for 2 hours.
(§4) In addition, for the control group, the 12-hour day and night cycle was maintained, but light illumination was applied to the test group for 24 hours to disrupt the regular living pattern, and thus a sleep-interfering environment was created (FIG. 5).
The cortisol level in blood serum separated from each test animal was measured. […] Absorbance at 405 nm was then measured.

serotonin = assay: Serotonin level in blood serum (ELISA); type: in vivo, mouse; conditions: 150 mg/kg doxepin for 14 days, blood on Day 17, vs control group
Experimental: as §1, §3, §4
The serotonin level in blood serum separated from each test animal was measured. […] Upon the completion of the reaction, absorbance at a wavelength of 405 nm was measured by using a microplate reader.

pCREB = assay: Expression ratio of pCREB protein in hippocampal tissues (Western blot); type: in vivo, mouse; conditions: 150 mg/kg doxepin for 14 days, tissues on Day 17, vs control group
BDNF and mBDNF = assay: Expression of BDNF and mBDNF in hippocampal tissues (Western blot); type: in vivo, mouse; conditions: 150 mg/kg doxepin for 14 days, tissues on Day 17, vs control group
Experimental: as §1
as §3, with “hours. […]” for “hours.”
Protein expression pattern in brain hippocampal tissues which have been collected from each test animal was determined by Western blot analysis. […] After obtaining the protein amount in each sample, the protein was quantified to 1 μg/μl, and then the expression amount of protein was measured by using Mini PROTEAN TGX Gels.

CN(C)CCC=C1c2ccccc2COc2ccccc21 [doxepin]
bodyweight (gain rate) [1]: increased in statistically significant sense | number of center entry [2]: increased in statistically significant sense | travel distance within the center zone [2]: increase in statistically significant sense | immobility time [3]: decreased in statistically significant sense | blood cortisol level (cortisol): decreased in statistically significant sense | serotonin hormone level in blood (serotonin): increased in statistically significant sense | expression ratio of pCREB protein (pCREB/CREB) in hippocampal tissues (pCREB): increase in statistically significant sense | relative expression amount of BDNF in hippocampal tissues (BDNF and mBDNF): increase in statistically significant sense | relative expression amount of mBDNF in hippocampal tissues (BDNF and mBDNF): increase in statistically significant sense

— patent US11253566B2, “Composition for ameliorating, or treating depression and anxiety disorder comprising Fraxinus rhynchophylla extract as effective ingredient” (priority 2017, dated 2022)
